Measured values taken from ChEMBL document CHEMBL3351857, “Synthesis and biological evaluation of 2,3'-diindolylmethanes as agonists of aryl hydrocarbon receptor” (Bioorg Med Chem Lett, 2014).

Key:
[1] = target: T1, Aryl hydrocarbon receptor (AhR) (Homo sapiens, UniProt P35869); assay: Activation of AhR in human HepG2 cells assessed as fluorescence after 24 hrs incubation at 10 nM by EROD assay relative to control; type: cell-based; conditions: read-out: FC
T1 sequence (P35869 whole entry): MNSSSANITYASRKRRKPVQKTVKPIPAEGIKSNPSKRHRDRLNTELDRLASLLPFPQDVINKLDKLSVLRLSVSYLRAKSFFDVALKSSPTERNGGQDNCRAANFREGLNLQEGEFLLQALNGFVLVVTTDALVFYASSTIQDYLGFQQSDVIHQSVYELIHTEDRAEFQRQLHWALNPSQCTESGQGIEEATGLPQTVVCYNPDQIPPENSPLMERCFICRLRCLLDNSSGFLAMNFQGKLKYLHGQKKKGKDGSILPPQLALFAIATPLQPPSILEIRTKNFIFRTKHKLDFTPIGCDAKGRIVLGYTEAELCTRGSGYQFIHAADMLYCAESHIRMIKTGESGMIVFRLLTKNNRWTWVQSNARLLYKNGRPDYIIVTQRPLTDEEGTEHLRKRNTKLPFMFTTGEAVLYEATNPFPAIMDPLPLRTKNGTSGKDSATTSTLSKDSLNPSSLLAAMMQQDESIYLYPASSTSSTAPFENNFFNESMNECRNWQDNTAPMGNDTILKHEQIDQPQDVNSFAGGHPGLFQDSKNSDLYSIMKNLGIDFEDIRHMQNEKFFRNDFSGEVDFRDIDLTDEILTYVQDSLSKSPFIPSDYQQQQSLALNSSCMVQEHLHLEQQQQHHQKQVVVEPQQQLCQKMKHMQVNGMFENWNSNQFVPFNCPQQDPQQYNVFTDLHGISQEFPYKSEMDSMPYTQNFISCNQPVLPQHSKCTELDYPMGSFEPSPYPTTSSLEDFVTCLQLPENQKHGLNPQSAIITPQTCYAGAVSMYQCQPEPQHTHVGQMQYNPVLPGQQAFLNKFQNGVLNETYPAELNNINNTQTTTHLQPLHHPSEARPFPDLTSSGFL

Homo sapiens = species on record: Homo sapiens; assay: Half life in human; type: ADME, organism-based; conditions: in vivo
[2] = target: T2, Aryl hydrocarbon receptor (Homo sapiens, UniProt P35869); assay: Activation of AhR in human HepG2 cells assessed as fluorescence after 24 hrs incubation by EROD assay; type: cell-based
T2 sequence (P35869 whole entry): T1 sequence (P35869 whole entry)

| SMILES | fold induction at 24 h, 0.01 µM [1] | also measured |
| --- | --- | --- |
| O=Cc1c(Cc2c[nH]c3ccc(Cl)cc23)[nH]c2ccccc12 | 5 | – |
| Clc1cc2c(cc1Cl)Oc1cc(Cl)c(Cl)cc1O2 [2,3,7,8-TETRACHLORODIBENZO-P-DIOXIN] | – | t1/2 (Homo sapiens): 7 yr |
| Clc1ccc2[nH]cc(Cc3cc4ccccc4[nH]3)c2c1 | – | EC50 [2]: > 6.7 µM |
| Cn1cc(Cc2[nH]c3ccccc3c2C=O)c2ccccc21 | 6 | – |
